The nature of data set [1]: physchem. The source says: PBTE consists of a solution of 3% w/v benzyl alcohol, 8% w/v polysorbate 80, and 65% w/v polyethylene glycol (MW=300 daltons) in absolute ethanol. PBTE:D5W consists of PBTE diluted 1:1 in a solution of 5% dextrose in water. […] The solubility of the other compounds described herein can be obtained using standard techniques.
Data set [2] concerns NIH3T3 cells overexpressing the human PDGF-b receptor. Briefly: PDGF-stimulated cell cycle progression, flow cytometry. It counts as cell-based, mouse. How it is done:
NIH3T3 mouse fibroblasts overexpressing the human PDGF-β receptor were seeded in DMEM supplemented with 10% CS and 2 mM GLN. Cells were grown to about 80% confluence and then treated overnight in serum-free medium (DMEM, 2 mM GLN, 2 mM NEAA, 2 mM NaPyr, and 2 mM HEPES). […] Cells were then collected, strained and analyzed by flow cytometry for DNA content.
The percentage of cells in the S phase of the cell cycle was determined by flow cytometry.
The cells were analyzed for DNA content by flow cytometry.
A general note: In flow cytometry, cells or beads pass a laser one at a time.

Data set [3] relates to T98G cells. The data set can be described thus: PDGF-stimulated DNA synthesis, T98G cells (3H-thymidine). As to conditions: 50 ng/ml PDGF-BB. The class given is cell-based, human. As to the method:
T98G cells in log phase growth were transferred to 96-well dishes at 20,000 cells in 200 μL of serum-containing growth medium. After an overnight attachment period, the monolayers were washed twice with 200 μL MCDB 105 medium and the cells were cultured in 200 μL serum-free MCDB 105 medium for 24 hr. […] The plates were incubated at 37° C. at ambient CO2 for approximately 18 hr. ^3 H-thymidine (Amersham, 5 Ci/mmol) was added to each well to yield a final concentration of 5 μCi/mL and the plates were returned to 37° C. incubator. After 4 hr the medium was removed, the plates were put onto ice, and washed twice with 200 μL ice-cold PBS per well. Radioactivity incorporated into DNA was separated from unincorporated ^3 H-thymidine by precipitation with 100 μL ice-cold TCA for 10 min on ice. […] Six mL of cocktail (Ready Safe, Beckman) was added and radioactivity quantified in a Beckman liquid scintillation counter model LS6000SC. […]
The effect on basal ^3 H-thymidine incorporation was determined in the absence of PDGF. […] Radioactivity incorporated into DNA was separated from unincorporated ^3 H-thymidine by precipitation with […] ice-cold TCA for 10 minutes. […] Six ml of cocktail (Ready Safe, Beckman) was added and radioactivity quantified in a Beckman liquid scintillation counter model LS6000 SC.

Structures are written as SMILES. Values after ≈ are worked out from the molar mass of the structure shown.

This note sets out measurements from patent US6331555A, “Treatment of platelet derived growth factor related disorders such as cancers” (priority 1999, dated 2001).

For orientation: solubility means the concentration that dissolves in the medium under given conditions. As to `Cc1oncc1C(=O)Nc1ccc(C(F)(F)F)cc1` [Compound A10, 5-methylisoxazole-4 carboxylic acid-(4-trifluromethyl)-anilide], the solubility in data set [1] (pbte, organic solvent or mixture) is about 60 mg/mL (≈ 222 mM); in data set [1] (pbte:d5w) it was about 5 mg/mL (≈ 18.5 mM). Besides, the solubility in water result in data set [1] (water) is reported as “not very soluble in water”. Moreover, in data set [2], the “number of cells progressing to the S phase in response to PDGF” value was “dose-dependent decrease in the number of cells progressing to the S phase”. Also, in data set [3], the “PDGF-stimulated DNA synthesis” value was “decreased PDGF-stimulated DNA synthesis in both types of cells, however a greater effect was seen in human T98G glioblastoma cells”.
